14 molecules from ChEMBL document CHEMBL4725363 (J Med Chem, 2020) can be followed below.

For series [1], the target named is cGMP-specific 3',5'-cyclic phosphodiesterase (Homo sapiens, UniProt O76074). In words: Inhibition of human PDE5A1 (535-860 residues) expressed in Escherichia coli BL21 incubated for 15 mins using [3H]-cGMP as substrate by liquid scintillation counting method.
The nature of series [2]: Inhibition of human PDE5A1 D563A mutant expressed in Escherichia coli BL21 incubated for 15 mins using [3H]-cGMP as substrate by liquid scintillation counting method.
For a further series, the species on record is Homo sapiens. The experiment in a line: Selectivity index, ratio of IC50 for human PDE6C to IC50 for human PDE5A1.
Series [3] addresses T1, DNA topoisomerase 1 (Homo sapiens) (UniProt P11387).
T1 sequence (whole entry): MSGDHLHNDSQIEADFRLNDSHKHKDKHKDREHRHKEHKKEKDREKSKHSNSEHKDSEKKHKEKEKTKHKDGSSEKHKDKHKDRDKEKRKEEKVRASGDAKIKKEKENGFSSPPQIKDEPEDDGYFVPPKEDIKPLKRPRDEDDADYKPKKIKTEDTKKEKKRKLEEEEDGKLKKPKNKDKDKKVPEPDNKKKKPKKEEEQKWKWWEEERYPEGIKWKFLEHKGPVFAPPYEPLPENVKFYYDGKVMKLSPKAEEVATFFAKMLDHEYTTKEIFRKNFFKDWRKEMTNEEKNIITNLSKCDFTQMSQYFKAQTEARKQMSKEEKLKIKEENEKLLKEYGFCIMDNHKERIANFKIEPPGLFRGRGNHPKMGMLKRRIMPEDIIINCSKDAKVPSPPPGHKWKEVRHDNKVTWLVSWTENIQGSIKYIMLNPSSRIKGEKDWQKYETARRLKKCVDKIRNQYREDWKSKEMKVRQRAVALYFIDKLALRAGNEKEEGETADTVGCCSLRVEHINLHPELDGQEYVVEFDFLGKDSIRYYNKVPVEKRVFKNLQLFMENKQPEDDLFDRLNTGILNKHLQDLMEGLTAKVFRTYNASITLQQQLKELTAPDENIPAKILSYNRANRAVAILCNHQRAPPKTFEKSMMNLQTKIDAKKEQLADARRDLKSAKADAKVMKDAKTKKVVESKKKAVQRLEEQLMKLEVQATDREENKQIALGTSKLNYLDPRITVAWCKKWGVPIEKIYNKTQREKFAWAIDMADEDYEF
The experiment in a line: Inhibition of Top (unknown origin) mediated supercoiled DNA relaxation at 100 uM.

Series [4] deals with DNA topoisomerase 2-alpha (Homo sapiens) (UniProt P11388). The experiment in a line: Inhibition of Top2 (unknown origin) mediated supercoiled DNA relaxation at 100 uM.
DNA topoisomerase 2-alpha (Homo sapiens), sequence (P11388 whole entry, the tested form may be a part): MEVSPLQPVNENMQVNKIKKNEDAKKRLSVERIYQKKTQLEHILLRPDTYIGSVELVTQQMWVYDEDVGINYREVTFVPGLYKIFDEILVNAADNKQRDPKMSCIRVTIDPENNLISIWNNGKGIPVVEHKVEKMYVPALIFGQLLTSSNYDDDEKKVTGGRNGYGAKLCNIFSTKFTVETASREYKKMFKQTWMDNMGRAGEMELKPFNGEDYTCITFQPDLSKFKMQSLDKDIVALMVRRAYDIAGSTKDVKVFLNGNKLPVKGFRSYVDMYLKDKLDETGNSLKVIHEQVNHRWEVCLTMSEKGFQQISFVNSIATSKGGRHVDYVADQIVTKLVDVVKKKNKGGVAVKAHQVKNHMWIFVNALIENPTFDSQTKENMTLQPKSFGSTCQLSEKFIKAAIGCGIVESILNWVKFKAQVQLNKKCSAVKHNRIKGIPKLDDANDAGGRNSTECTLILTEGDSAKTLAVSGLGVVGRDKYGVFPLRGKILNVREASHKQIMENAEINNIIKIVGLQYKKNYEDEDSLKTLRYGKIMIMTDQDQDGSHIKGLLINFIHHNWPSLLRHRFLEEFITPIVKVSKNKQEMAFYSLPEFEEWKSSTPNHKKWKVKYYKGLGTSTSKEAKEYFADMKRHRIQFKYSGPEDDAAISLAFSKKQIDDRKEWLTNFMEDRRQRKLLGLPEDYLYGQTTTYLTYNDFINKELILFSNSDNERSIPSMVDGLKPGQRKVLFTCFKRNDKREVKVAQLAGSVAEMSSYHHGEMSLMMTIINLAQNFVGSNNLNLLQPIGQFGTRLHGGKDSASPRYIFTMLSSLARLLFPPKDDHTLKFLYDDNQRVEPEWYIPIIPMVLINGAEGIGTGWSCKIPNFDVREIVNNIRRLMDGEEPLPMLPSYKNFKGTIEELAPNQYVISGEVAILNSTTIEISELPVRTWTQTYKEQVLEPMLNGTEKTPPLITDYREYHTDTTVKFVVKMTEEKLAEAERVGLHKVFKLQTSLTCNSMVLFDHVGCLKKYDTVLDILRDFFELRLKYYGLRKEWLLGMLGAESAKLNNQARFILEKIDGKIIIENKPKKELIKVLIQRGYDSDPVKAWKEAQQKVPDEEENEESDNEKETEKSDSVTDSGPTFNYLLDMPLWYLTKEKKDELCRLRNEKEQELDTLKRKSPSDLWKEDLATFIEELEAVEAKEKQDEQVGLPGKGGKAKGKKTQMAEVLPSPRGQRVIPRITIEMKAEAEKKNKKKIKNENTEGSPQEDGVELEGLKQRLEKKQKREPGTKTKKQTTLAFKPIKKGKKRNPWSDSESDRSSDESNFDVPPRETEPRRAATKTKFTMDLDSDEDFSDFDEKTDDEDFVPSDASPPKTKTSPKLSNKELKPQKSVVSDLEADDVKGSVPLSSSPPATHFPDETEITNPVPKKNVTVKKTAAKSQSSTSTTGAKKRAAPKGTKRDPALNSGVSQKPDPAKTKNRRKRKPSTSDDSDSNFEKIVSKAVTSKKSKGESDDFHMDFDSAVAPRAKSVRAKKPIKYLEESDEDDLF
In series [5] the target is High affinity 3',5'-cyclic-AMP phosphodiesterase 7A (Homo sapiens, UniProt Q13946). In words: Inhibition of PDE7A1 catalytic domain (130 to 482 residues) (unknown origin) using [3H]-cAMP as substrate after 15 mins by liquid scintillation counting method.
High affinity 3',5'-cyclic-AMP phosphodiesterase 7A, sequence (Q13946 whole entry, the tested form may be a part): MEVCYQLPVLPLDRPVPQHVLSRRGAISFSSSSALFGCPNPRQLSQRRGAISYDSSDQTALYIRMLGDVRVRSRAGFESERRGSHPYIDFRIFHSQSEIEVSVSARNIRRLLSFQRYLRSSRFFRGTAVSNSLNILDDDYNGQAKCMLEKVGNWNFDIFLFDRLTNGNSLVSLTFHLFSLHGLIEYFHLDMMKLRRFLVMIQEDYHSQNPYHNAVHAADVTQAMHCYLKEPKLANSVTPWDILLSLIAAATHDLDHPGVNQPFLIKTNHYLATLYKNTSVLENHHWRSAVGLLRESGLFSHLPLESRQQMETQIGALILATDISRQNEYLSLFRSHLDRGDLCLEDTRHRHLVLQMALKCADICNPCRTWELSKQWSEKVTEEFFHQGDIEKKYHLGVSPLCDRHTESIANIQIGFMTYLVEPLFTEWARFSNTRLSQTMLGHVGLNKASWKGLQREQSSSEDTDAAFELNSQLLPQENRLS
Series [6] has as its target cAMP and cAMP-inhibited cGMP 3',5'-cyclic phosphodiesterase 10A (Homo sapiens, UniProt Q9Y233). The experiment in a line: Inhibition of human PDE10A catalytic domain (449 to 770 residues) using [3H]-cAMP as substrate after 15 mins by liquid scintillation counting method.
In series [7] the target is Dual specificity calcium/calmodulin-dependent 3',5'-cyclic nucleotide phosphodiesterase 1B (Homo sapiens, UniProt Q01064). The experiment in a line: Inhibition of human PDE1B (10-487 residues) expressed in Sf9 cells incubated for 15 mins using [3H]-cGMP as substrate by liquid scintillation counting method.
Dual specificity calcium/calmodulin-dependent 3',5'-cyclic nucleotide phosphodiesterase 1B, sequence (Q01064 whole entry, the tested form may be a part): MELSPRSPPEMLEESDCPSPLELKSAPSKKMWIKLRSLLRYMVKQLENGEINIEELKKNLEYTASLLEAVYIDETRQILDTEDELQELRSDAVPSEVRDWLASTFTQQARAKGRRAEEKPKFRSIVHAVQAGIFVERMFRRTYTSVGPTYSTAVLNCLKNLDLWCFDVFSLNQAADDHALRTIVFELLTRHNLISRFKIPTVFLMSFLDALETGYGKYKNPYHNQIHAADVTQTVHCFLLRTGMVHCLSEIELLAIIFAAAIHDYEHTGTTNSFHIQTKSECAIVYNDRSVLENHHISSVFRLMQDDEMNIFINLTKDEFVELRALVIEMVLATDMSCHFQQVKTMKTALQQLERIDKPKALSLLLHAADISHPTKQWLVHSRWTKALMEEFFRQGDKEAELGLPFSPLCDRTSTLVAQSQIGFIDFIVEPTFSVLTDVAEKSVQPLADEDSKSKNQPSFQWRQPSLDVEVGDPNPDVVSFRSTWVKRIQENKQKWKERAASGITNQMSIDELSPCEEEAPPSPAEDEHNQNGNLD
The target of series [8] is Dual 3',5'-cyclic-AMP and -GMP phosphodiesterase 11A (Homo sapiens, UniProt Q9HCR9). In words: Inhibition of PDE11A catalytic domain (unknown origin) using [3H]-cAMP or [3H]-[…] as substrate after 15 mins by liquid scintillation counting method.
Dual 3',5'-cyclic-AMP and -GMP phosphodiesterase 11A, sequence (Q9HCR9 whole entry, the tested form may be a part): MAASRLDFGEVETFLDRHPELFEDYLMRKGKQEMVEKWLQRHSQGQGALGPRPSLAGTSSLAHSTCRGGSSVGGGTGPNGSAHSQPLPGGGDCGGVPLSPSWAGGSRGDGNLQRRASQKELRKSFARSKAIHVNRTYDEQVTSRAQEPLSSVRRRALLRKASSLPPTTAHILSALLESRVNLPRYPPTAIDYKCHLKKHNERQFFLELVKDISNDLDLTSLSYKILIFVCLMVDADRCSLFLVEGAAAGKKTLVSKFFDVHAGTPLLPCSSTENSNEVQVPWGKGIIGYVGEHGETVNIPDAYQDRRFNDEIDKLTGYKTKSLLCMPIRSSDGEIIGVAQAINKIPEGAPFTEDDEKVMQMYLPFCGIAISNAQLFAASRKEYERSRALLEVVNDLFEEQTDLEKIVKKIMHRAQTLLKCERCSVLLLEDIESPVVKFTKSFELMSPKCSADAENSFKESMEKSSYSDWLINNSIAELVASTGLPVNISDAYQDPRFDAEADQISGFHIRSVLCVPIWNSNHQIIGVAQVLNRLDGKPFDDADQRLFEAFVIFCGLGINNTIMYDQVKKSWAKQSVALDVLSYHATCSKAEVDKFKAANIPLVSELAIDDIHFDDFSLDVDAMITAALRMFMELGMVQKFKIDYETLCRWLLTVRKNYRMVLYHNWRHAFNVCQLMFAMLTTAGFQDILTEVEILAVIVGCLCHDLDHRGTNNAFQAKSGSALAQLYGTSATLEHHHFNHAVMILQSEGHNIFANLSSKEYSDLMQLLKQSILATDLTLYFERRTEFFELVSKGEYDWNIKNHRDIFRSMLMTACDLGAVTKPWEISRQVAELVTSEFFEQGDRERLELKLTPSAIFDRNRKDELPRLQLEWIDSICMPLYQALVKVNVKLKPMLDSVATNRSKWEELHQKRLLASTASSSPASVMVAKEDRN
The subject of series [9] is COc1ccc2c3c([nH]c2c1)[C@@H]1N(CC3)C(=O)c2c(OC)cccc2N1C. In words: Negative allosteric modulator activity at human PDE5A1 (535-860 residues) expressed in Escherichia coli BL21 assessed as Kcat/Km ratio for cGMP at 25 nM incubated for 15 mins using [3H]-cGMP as substrate by liquid scintillation counting method (reference value: 0.6 +/- 0.04 /s/microM). The following applies: filed as negative allosteric modulator.

The test system is the same in series [10]. In words: Negative allosteric modulator activity at human PDE5A1 (535-860 residues) expressed in Escherichia coli BL21 assessed as Km for cGMP at 200 nM incubated for 15 mins using [3H]-cGMP as substrate by liquid scintillation counting method (reference value: 4.22 +/- 0.45 uM). The settings on record: filed as negative allosteric modulator.
The test system is the same in series [11]. In words: Negative allosteric modulator activity at human PDE5A1 (535-860 residues) expressed in Escherichia coli BL21 assessed as Kcat for cGMP at 200 nM incubated for 15 mins using [3H]-cGMP as substrate by liquid scintillation counting method (reference value: 2.53 +/- 0.24 /s). The settings on record: filed as negative allosteric modulator.
For series [12] the test system is unchanged. The experiment in a line: Negative allosteric modulator activity at human PDE5A1 (535-860 residues) expressed in Escherichia coli BL21 assessed as Kcat/Km ratio for cGMP at 200 nM incubated for 15 mins using [3H]-cGMP as substrate by liquid scintillation counting method (reference value: 0.6 +/- 0.04 /s/microM). The settings on record: filed as negative allosteric modulator.

The test system is the same in series [13]. The experiment in a line: Negative allosteric modulator activity at human PDE5A1 (535-860 residues) expressed in Escherichia coli BL21 assessed as Kcat for cGMP at 50 nM incubated for 15 mins using [3H]-cGMP as substrate by liquid scintillation counting method (reference value: 2.53 +/- 0.24 /s). The settings on record: filed as negative allosteric modulator.

The test system is the same in series [14]. The experiment in a line: Negative allosteric modulator activity at human PDE5A1 (535-860 residues) expressed in Escherichia coli BL21 assessed as Kcat/Km ratio for cGMP at 50 nM incubated for 15 mins using [3H]-cGMP as substrate by liquid scintillation counting method (reference value: 0.6 +/- 0.04 /s/microM). The following applies: filed as negative allosteric modulator.

Series [15] has the same test system. The experiment in a line: Negative allosteric modulator activity at human PDE5A1 (535-860 residues) expressed in Escherichia coli BL21 assessed as Km for cGMP at 50 nM incubated for 15 mins using [3H]-cGMP as substrate by liquid scintillation counting method (reference value: 4.22 +/- 0.45 uM). The following applies: filed as negative allosteric modulator.
The test system is the same in series [16]. The experiment in a line: Negative allosteric modulator activity at human PDE5A1 (535-860 residues) expressed in Escherichia coli BL21 assessed as Kcat for cGMP at 25 nM incubated for 15 mins using [3H]-cGMP as substrate by liquid scintillation counting method (reference value: 2.53 +/- 0.24 /s). The settings on record: filed as negative allosteric modulator.

For series [17] the test system is unchanged. In words: Negative allosteric modulator activity at human PDE5A1 (535-860 residues) expressed in Escherichia coli BL21 assessed as Kcat for cGMP at 100 nM incubated for 15 mins using [3H]-cGMP as substrate by liquid scintillation counting method (reference value: 2.53 +/- 0.24 /s). The following applies: filed as negative allosteric modulator.
The test system is the same in series [18]. The experiment in a line: Negative allosteric modulator activity at human PDE5A1 (535-860 residues) expressed in Escherichia coli BL21 assessed as Km for cGMP at 25 nM incubated for 15 mins using [3H]-cGMP as substrate by liquid scintillation counting method (reference value: 4.22 +/- 0.45 uM). The following applies: filed as negative allosteric modulator.

Series [19] has the same test system. The experiment in a line: Negative allosteric modulator activity at human PDE5A1 (535-860 residues) expressed in Escherichia coli BL21 assessed as Km for cGMP at 100 nM incubated for 15 mins using [3H]-cGMP as substrate by liquid scintillation counting method (reference value: 4.22 +/- 0.45 uM). The following applies: filed as negative allosteric modulator.

The test system is the same in series [20]. The experiment in a line: Negative allosteric modulator activity at human PDE5A1 (535-860 residues) expressed in Escherichia coli BL21 assessed as Kcat/Km ratio for cGMP at 100 nM incubated for 15 mins using [3H]-cGMP as substrate by liquid scintillation counting method (reference value: 0.6 +/- 0.04 /s/microM). The settings on record: filed as negative allosteric modulator.

pIC50: −log10 of the molar value. The source made the active and inactive calls. The rule behind the calls is not given here.

cAMP and cAMP-inhibited cGMP 3',5'-cyclic phosphodiesterase 10A, sequence (Q9Y233 whole entry, the tested form may be a part): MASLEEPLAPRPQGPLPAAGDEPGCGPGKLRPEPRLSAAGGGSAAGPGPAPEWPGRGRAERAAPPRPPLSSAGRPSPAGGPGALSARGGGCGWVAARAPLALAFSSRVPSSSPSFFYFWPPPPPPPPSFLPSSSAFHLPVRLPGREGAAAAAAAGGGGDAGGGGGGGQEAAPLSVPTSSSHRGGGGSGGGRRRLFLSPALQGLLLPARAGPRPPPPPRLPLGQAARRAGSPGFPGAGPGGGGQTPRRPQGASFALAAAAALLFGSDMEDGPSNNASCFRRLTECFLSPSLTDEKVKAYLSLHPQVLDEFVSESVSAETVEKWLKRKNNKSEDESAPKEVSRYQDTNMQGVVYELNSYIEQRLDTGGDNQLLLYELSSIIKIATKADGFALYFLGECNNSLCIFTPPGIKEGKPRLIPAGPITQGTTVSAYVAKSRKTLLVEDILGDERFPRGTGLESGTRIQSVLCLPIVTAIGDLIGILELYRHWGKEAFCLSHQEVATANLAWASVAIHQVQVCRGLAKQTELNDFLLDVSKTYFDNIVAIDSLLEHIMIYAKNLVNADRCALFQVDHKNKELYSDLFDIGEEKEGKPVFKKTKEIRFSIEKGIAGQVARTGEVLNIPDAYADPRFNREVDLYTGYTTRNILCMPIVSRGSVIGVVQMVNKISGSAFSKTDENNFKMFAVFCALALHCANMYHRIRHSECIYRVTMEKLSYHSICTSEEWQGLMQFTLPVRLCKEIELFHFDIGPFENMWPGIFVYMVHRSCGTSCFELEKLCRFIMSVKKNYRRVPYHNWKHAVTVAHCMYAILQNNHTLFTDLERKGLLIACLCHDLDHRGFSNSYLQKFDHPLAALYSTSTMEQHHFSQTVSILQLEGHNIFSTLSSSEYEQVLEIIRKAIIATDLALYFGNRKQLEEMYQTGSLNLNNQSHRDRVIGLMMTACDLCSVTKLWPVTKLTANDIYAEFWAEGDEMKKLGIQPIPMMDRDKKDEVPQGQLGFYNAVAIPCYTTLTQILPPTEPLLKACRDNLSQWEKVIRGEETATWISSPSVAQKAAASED

Broadly, the pIC50 is the negative decadic logarithm of the IC50, by convention in mol/L. In turn, `COc1ccc2c3c([nH]c2c1)[C@H]1N(CC3)C(=O)c2c(OC)cccc2N1C` showed a pIC50 in series [1] of under 5.00.

`CCCc1nn(C)c2c(=O)[nH]c(-c3cc(S(=O)(=O)N4CCN(C)CC4)ccc3OCC)nc12`: in [2], the pIC50 is 8.92.

In the case of `CN1c2cccc(O)c2C(=O)N2CCc3c([nH]c4ccccc34)C21` (stereo not drawn), in series [1], the pIC50 was 5.77.

In series [1], `COc1ccc2c3c([nH]c2c1)C1N(CC3)C(=O)c2c(OC)cccc2N1C` (stereo not drawn) gave a pIC50 of 7.28.

For `CN1c2ccccc2C(=O)N2CCc3c([nH]c4ccccc34)[C@H]21`, the pIC50 in series [1] is 5.89.

As to `COc1cccc2c1C(=O)N1CCc3c([nH]c4ccccc34)C1N2C` (stereo not drawn), in the series filed under Homo sapiens, the Ratio IC50 is over 64. Further, the pIC50 in series [1] was 6.47.

As to `COc1cccc2c1C(=O)N1CCc3c([nH]c4ccccc34)[C@H]1N2C`, the Ratio IC50 in the series filed under Homo sapiens is over 190. The pIC50 in [1] is 6.96.

In series [1], `CN1c2cccc(O)c2C(=O)N2CCc3c([nH]c4ccccc34)[C@@H]21` gave a pIC50 of under 5.00.

With `CN1c2ccccc2C(=O)N2CCc3c([nH]c4ccccc34)[C@@H]21` [EVODIAMINE], the pIC50 in series [1] is under 4.30.

`CN1c2ccccc2C(=O)N2CCc3c([nH]c4ccccc34)C21` (stereo not drawn): the pIC50 in series [1] was 5.68.

In the case of `CN1c2cccc(O)c2C(=O)N2CCc3c([nH]c4ccccc34)[C@H]21`, the pIC50 in [1] was 6.38.

On to `COc1cccc2c1C(=O)N1CCc3c([nH]c4cccc(OC)c34)[C@H]1N2C`, for which the inhibition result in series [3] and in series [4] was “inactive” each time. Further, the pIC50 is under 4.70 in series [5]; 5.66 in series [6]; under 4.70 in series [7]; 7.46 in series [1]; under 4.70 in [8].

In [1], `COc1cccc2c1C(=O)N1CCc3c([nH]c4ccccc34)[C@@H]1N2C` gave a pIC50 of 5.59.

One may read the kcat/Km as the second-order rate constant that governs catalysis at low substrate concentration. One may read the Km as the substrate concentration at which the rate is half of its maximum. By kcat is commonly meant the number of substrate molecules converted per active site and unit of time at saturation. Turning to “cGMP-specific 3',5'-cyclic phosphodiesterase (Homo sapiens) (from UniProt O76074)”, the kcat/Km in series [9] came out at 0.17 s⁻¹ µM⁻¹; in series [12] it was 0.084 s⁻¹ µM⁻¹; in series [14] it was 0.13 s⁻¹ µM⁻¹; in series [20] it was 0.11 s⁻¹ µM⁻¹. In addition, the Km in [10] was determined as 12.5 µM; in [15], 11.8 µM; in [18], 11.8 µM; in series [19], 13.2 µM. For the same molecule, the kcat in [11] was found to be 1.05 s⁻¹; in series [13], 1.51 s⁻¹; in series [16] it was 1.99 s⁻¹; in series [17] it was 1.48 s⁻¹.
